Data: patent EP3445382B1, “HARUNGANA MADAGASCARIENSIS LEAF EXTRACT FOR USE IN THE TREATMENT AND/OR PREVENTION OF ACNE” (Société d'Exploitation de Produits pour les Industries …, priority 2016, dated 2017)

What was measured:
[1] = test system: IL-8 release by LPS-stimulated PBMCs; experiment: IL-8 release by LPS-stimulated PBMCs (ELISA); type: cell-based; details: Homo sapiens, PBMC; 10^-7 M; LPS 1 µg/ml, 24 hours
Protocol: (§1) In the present example, the potential anti-inflammatory effect of HMA extract was investigated in human peripheral blood mononuclear cells (PBMCs) under stimulated conditions. More precisely, the effect of the test compound was evaluated on IL-8, IL-10 and IL-12 release by LPS-stimulated PBMCs using specific ELISA kits.
(§2) The quantification of anti-inflammatory effects was undertaken as follows: Samples of HMA extract to be analyzed were prepared from a stock solution containing 5% (w/v) in glycerol/ultra-pure water (60/40).
(§3) PBMCs were isolated from whole blood, seeded in 96-well plates and incubated in culture medium for 1 hour. The medium was then replaced by culture medium containing or not (stimulated control) the test compound or the reference compound, i.e., dexamethasone tested at 10^-7 M, and cells were pre-incubated for 1 hour. The inflammatory inducer, LPS (1 µg/ml) was then added and cells were incubated for 24 hours. A non-stimulated control was also performed in parallel. All experimental conditions were performed in n=3.
(§4) After incubation, the culture supernatants were collected in order to quantify IL-8, IL-10 and IL-12 release. […]
(§5) The quantity of IL-8, IL-10 and IL-12 released in the culture supernatants was measured using specific ELISA kits according to the supplier's instructions.
(§6) Raw data were analyzed using Microsoft Excel® software. […]

[2] = test system: IL-10 release by LPS-stimulated PBMCs; experiment: IL-10 release by LPS-stimulated PBMCs (ELISA); type: cell-based, human; details: 10^-7 M, LPS 1 µg/ml, 24 hours
Protocol: as §1, §2, §3, §4, §5, §6

PBMCs = experiment: viability assay (alamarBlue) on LPS-stimulated PBMCs; type: cell-based, human; details: 10^-7 M
Protocol: as §3
After incubation, the culture supernatants were collected in order to quantify IL-8, IL-10 and IL-12 release. A viability assay was performed on cells according to a standard alamarBlue® protocol.
After treatment, the cells were incubated with alamarBlue® reduced in resorufin via the mitochondrial reduction reactions of metabolically active cells. This transformation is proportional to the number of living cells. The optical density (OD) at 570nm was recorded using a microplate reader (VERSAmax, Molecular Devices).

[3] = test system: IL-12 release by LPS-stimulated PBMCs; experiment: IL-12 release by LPS-stimulated PBMCs (ELISA); type: cell-based, human; details: 10^-7 M, LPS 1 µg/ml
Protocol: as §1, §2, §3, §4, §5, §6

[4] = target: T1, pancreatic lipase (PL; 3.1.1.3) (Homo sapiens, UniProt P16233); experiment: lipase activity, biochemical test with radioactive triolein substrate; details: 1000 nM; 2 hours at 37 °C
T1 sequence (P16233 17-465): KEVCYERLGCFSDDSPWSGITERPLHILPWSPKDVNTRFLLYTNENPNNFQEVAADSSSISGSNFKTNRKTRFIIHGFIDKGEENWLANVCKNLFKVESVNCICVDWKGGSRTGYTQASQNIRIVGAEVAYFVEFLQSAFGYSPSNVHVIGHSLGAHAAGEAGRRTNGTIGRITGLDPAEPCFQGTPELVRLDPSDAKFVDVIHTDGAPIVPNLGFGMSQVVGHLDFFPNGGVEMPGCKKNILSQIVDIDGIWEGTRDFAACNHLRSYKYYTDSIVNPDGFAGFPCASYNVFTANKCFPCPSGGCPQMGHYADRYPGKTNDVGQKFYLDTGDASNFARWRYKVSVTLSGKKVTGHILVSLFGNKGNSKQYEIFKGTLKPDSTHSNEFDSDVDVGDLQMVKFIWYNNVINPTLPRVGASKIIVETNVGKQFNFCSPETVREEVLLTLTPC
Protocol: In the present example, the effect of HMA extract was evaluated on the lipase activity with a biochemical test using a radioactive substrate. The lipase catalyzes the hydrolysis of glycerol-ester (glycerides) and long chain fatty acid emulsions. The substrate of this enzyme is not a simple molecule but a non-aqueous phase of aggregated lipids. The usual method to quantify the lipase activity is titration (pH variation) which is not often efficient for the testing of inhibitory compounds and generates several artifacts. An alternative and more efficient method (followed in the present example) was to use a radioactive complex lipid substrate.
The quantification of lipase activity was undertaken as follows: Samples of HMA extract to be analyzed were prepared from a stock solution containing 5% (w/v) in glycerol/ultra-pure water (60/40).
The compound and the reference (Orlistat tested at 1000 nM) were incubated for 2 hours at 37 °C in presence of the enzyme, pancreatic lipase (PL; 3.1.1.3) at 125 U/ml and the radioactive substrate (3.34 µCi/tube, stable emulsion of triolein at 5.25 mM corresponding to a mix of cold and titriated triolein). A negative control was performed by incubating the substrate alone, without enzyme in the reaction mix, in order to determine the background signal. […]
as §6

[5] = acellular lipid peroxidation, TBARS production (hemin-induced, phosphatidylcholine micelles); type: biochemical; details: 10 µM, hemin 5 µM, 1 hour at 37 °C
Protocol: In the present example, the effect of HMA extract was evaluated on oxidative stress. More specifically, its protective effect against lipid peroxidation (acellular reaction) was evaluated by measuring the production of thiobarbituric acid reactive substances (TBARS). The quantification of anti-oxidant capacity was undertaken as follows: Samples of HMA extract to be analyzed were prepared from a stock solution containing 5% (w/v) in glycerol/ultra-pure water (60/40). […] Additional control conditions were also included in the experimental design: without inducer (non-activated condition), 'Interference' controls (test compound added to the reactive medium without micelles of lipids to assess a potential auto-fluorescence of compounds) and 'Quenching' controls (test compound added at the end of reaction to check for potential quenching of the signal directly by the test compounds). […] TBARS thus produced were then evaluated by fluorescence measurement (λex 540 nm; λem 590 nm). The results are expressed as TBARS equivalent, representing the antioxidant activity expressed as Trolox equivalent of the test compound. Raw data were analyzed using Microsoft Excel® software. […]

With `C[C@@H]1C[C@H]2[C@@H]3CCC4=CC(=O)C=C[C@]4(C)[C@@]3(F)[C@@H](O)C[C@]2(C)[C@@]1(O)C(=O)CO` [Dexamethasone, dexamethasone] the inhibition at 0.1 µM [1] was 72%, the “% Inhibition (I) or % stimulation (S)” value [2] was 32 (I) % and the inhibition at 0.1 µM ([2]; Homo sapiens, PBMC, inhibition (I), read-out: % Inhibition (I) or % stimulation (S)) was 32%. The “Viability % stimulated control” value (PBMCs) was 88 % stimulated control, the “% Inhibition” value ([3]; 24 hours) was >100% and the inhibition at 0.1 µM ([3]; Homo sapiens, PBMC, 24 h) was 100%.

Work on `CCCCCCCCCCC[C@@H](C[C@@H]1OC(=O)[C@H]1CCCCCC)OC(=O)[C@H](CC(C)C)NC=O` [Orlistat] yielded an inhibition at 1 µM [4] of 41%.

With `Cc1c(C)c2c(c(C)c1O)CCC(C)(C(=O)O)O2` (centres unmarked) [Trolox, 6-hydroxy-2,5,7,8-tetramethylchroman-2-carboxylic acid] the “% Inhibition” value [5] was 72%.
